Data set [1] has as its system ddy male mice. As to the kind of experiment: Acute toxicity, intraperitoneal administration to mice, five days observation. It counts as in vivo. The note with it: intraperitoneally, five weeks old ddy male mice, 7200 min. The text has this:
(§1) Next, the acute toxicity of the compounds of the present invention is as follows.

In data set [2] the test system is Ehrlich carcinoma. As to the kind of experiment: Screening test against Ehrlich carcinoma, subcutaneous solid type, in mice (T/C of tumor weight on thirtieth day). The data set is classed as in vivo, ddy male mice. The note with it: intraperitoneally, once per day for ten days, average tumor weight on thirtieth day. The protocol:
The activity of the compounds of the present invention against Ehrlich carcinoma was confirmed by the screening test mentioned below.
Ehrlich carcinoma was employed for the determination of the antitumor properties, and the tumor to be tested was of subcutaneous solid type.
The animal group to which the compounds of the present invention were administered consisted of seven mice, whereas the control group consisted of ten mice.
Six weeks old ddy male mice (body weight: 28-30 g) were employed except for the case where condurango glycoside Ao or Co was administered; in the latter case those weighing 20-26 g and being five weeks old were used.
The tumors were transplanted intraperitoneally in the mice. On the seventh day after the transplantation, the well grown cells of the tumors were taken out, and 1.5×10^6 cells (3.0×10^6 cells in the case where condurango glycoside Ao or Co was given) thereof was transplanted subcutaneously in the inguinal region of the mice to form solid tumors. At and after 24 hours after the transplantation, the compounds of the present invention dissolved in physiological saline solutions were administered to the mice intraperitoneally.
The volume of the respective solutions administered was 0.2 ml per mouse at one time, and the administration was continued for ten days at a rate of one time per day. Only physiological saline solutions were given to the mice of the control group.
On the thirtieth day after the transplantation, the tumors were taken out and measured to get the average weight of the tumors of the mice of the group to which the compounds of the present invention had been administered (T) and that of the control group (C) and to calculate the T/C (%).

Data set [3] in a line: Acute toxicity, intraperitoneal administration to mice, five days observation. The data set is classed as in vivo. The note with it: mouse, in vivo, ip, intraperitoneally, five weeks old ddy male mice.
Excerpt: as §1

Take `COC1CC(OC2CCC3(C)C(CCC4C3C(OC(=O)C=Cc3ccccc3)C(OC(C)=O)C35COC(C)(OC)C3CCC45O)C2)OC(C)C1OC1CC(OC)C(OC2OC(C)C(OC3OC(CO)C(O)C(O)C3O)C(OC)C2O)C(C)O1` (stereo not drawn) [20-Iso-O-methyl-condurango glycoside Do, 20-iso-O-methyl-condurango glycoside Do]: the “LD50” value in data set [1] is on record as 642 mg/kg. Further, the “T/C (%)” value is listed as 38.1% in data set [2] (8 mg/kg × 10 times), 26.3% in data set [2] (16 mg/kg × 10 times) and 18.0% in data set [2] (32 mg/kg × 10 times).

In data set [3], `COC1CC(OC2CCC3(C)C(CCC4C3C(OC(=O)C=Cc3ccccc3)C(OC(C)=O)C35COC(C)(OC)C3CCC45O)C2)OC(C)C1OC1CC(OC)C(OC2OC(C)C(OC3OC(CO)C(O)C(O)C3O)C(OC)C2O)C(C)O1` (stereo not drawn) [20-O-methyl-condurango glycoside Do] had an LD50 at 120 h of 603 mg/kg. The “T/C (%)” value is reported as 16.5% in data set [2] (8 mg/kg × 10 times) and 11.6% in data set [2] (16 mg/kg × 10 times).

`COC1CC(OC2CCC3(C)C(CCC4C3C(OC(=O)C=Cc3ccccc3)C(OC(C)=O)C3(C)C(C(C)=O)CCC43O)C2)OC(C)C1OC1CC(OC)C(OC2OC(C)C(OC3OC(CO)C(O)C(O)C3O)C(OC)C2O)C(C)O1` (stereo not drawn) [Condurango glycoside Ao, condurango glycoside Ao] came in with an LD50 at 120 h in data set [3] of 75 mg/kg. In addition, the “T/C (%)” value stood at 32.1% in data set [2] (8 mg/kg × 10 times) and 27.3% in data set [2] (16 mg/kg × 10 times).

Turning to `COC1CC(OC2CCC3(C)C(CCC4C3C(OC(=O)C=Cc3ccccc3)C(OC(C)=O)C35COC6(C)OC43CCC65)C2)OC(C)C1OC1CC(OC)C(OC2OC(C)C(OC3OC(CO)C(O)C(O)C3O)C(OC)C2O)C(C)O1` (stereo not drawn) [Condurango glycoside Bo, condurango glycoside Bo], in data set [3], the LD50 at 120 h was 615 mg/kg. The “T/C (%)” value amounted to 23.3% in data set [2] (8 mg/kg × 10 times), 11.8% in data set [2] (16 mg/kg × 10 times) and 10.0% in data set [2] (32 mg/kg × 10 times).

As to `COC1CC(OC2CCC3(C)C(CCC4C3C(OC(=O)C=Cc3ccccc3)C(OC(C)=O)C3(C)C(C(C)O)CCC43O)C2)OC(C)C1OC1CC(OC)C(OC2OC(C)C(OC3OC(CO)C(O)C(O)C3O)C(OC)C2O)C(C)O1` (stereo not drawn) [Condurango glycoside Co, condurango glycoside Co], the LD50 at 120 h in data set [3] amounted to 375 mg/kg. The “T/C (%)” value stood at 30.8% in data set [2] (16 mg/kg × 10 times) and 20.1% in data set [2] (32 mg/kg × 10 times).

`COC1CC(OC2CCC3(C)C(CCC4C3C(OC(=O)C=Cc3ccccc3)C(OC(C)=O)C35COC(C)(O)C3CCC45O)C2)OC(C)C1OC1CC(OC)C(OC2OC(C)C(OC3OC(CO)C(O)C(O)C3O)C(OC)C2O)C(C)O1` (stereo not drawn) [Condurango glycoside Do, condurango glycoside Do] gave an LD50 at 120 h in data set [3] of 630 mg/kg. The entries for the “T/C (%)” value in data set [2] (8 mg/kg × 10 times), in data set [2] (16 mg/kg × 10 times) and in data set [2] (32 mg/kg × 10 times) were 29.0%, 53.8% and 9.5%, respectively.

In general, LD50 refers to the dose at which mortality reaches 50%. Read a high LD50 as lower toxicity.

The record behind these values is US4452786A, “Condurango glycoside compounds, processes for their preparation, antitumor agents comprising them and compositions” (Zenyaku Kogyo Kabushiki Kaisha, priority 1980, dated 1984).
